The source of these data is patent publication US20120264735A1 (priority 2009, published 2012).

SMILES strings stand for the structures.

T1 sequence (P08581 25-1390): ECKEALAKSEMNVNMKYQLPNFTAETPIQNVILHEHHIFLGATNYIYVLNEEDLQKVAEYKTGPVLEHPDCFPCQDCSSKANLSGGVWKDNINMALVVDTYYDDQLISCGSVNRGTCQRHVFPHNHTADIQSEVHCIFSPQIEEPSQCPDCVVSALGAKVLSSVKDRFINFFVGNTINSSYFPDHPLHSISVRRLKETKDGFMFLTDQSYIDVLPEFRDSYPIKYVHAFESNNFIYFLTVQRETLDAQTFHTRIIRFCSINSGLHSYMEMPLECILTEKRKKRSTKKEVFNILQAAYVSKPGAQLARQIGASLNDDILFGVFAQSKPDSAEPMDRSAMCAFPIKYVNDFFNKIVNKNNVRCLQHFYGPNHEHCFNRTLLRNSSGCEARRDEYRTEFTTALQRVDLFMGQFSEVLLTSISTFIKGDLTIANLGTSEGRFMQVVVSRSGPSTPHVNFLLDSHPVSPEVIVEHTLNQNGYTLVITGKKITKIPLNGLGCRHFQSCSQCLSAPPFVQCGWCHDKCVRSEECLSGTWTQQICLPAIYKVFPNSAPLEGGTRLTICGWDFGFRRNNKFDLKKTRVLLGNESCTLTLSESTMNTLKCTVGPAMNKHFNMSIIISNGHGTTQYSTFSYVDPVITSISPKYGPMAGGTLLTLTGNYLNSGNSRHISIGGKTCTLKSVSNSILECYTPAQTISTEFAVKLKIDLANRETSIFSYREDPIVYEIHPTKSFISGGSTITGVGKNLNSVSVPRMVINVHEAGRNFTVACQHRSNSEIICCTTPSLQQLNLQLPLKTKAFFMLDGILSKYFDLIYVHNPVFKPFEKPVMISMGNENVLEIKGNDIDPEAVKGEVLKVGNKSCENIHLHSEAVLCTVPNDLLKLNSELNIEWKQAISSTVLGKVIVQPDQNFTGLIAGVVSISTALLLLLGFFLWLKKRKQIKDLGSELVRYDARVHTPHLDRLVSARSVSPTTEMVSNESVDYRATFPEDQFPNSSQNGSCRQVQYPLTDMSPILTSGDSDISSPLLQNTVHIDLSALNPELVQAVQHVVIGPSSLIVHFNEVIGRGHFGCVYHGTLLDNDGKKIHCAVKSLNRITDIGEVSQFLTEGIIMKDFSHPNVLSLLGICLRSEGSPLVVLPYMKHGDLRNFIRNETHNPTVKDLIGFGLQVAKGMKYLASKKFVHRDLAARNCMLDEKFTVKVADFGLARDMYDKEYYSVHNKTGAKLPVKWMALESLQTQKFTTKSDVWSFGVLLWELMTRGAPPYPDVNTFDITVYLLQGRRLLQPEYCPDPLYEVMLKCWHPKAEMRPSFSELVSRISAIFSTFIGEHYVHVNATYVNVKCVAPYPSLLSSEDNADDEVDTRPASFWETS

This assay has as its target T1, c-Met kinase (recombinant c-Met) (Homo sapiens, UniProt P08581).
T1 construct: 0.27 nM recombinant c-Met
The assay is described as follows: In vitro kinase assay I (homogeneous time-resolved fluorescence tyrosine kinase assay). It counts as biochemical. An outline of the steps:
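Biotinylated peptide (0.5 μM) phosphorylated by 0.2 nM recombinant c-Met with 50 μM MgATP, 60 min at room temperature, pH 7.4, 5% DMSO. EDTA stop; HTRF read with Eu-anti-phosphotyrosine antibody and streptavidin-APC. IC50 from 4-parameter logistic fit.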
The term IC50 denotes the midpoint of a concentration-inhibition curve. With `O=C(Nc1cccc(Cc2nn(-c3cc(F)c(F)c(F)c3)ccc2=O)c1)OCC1CCC1` [Example 555, cyclobutylmethyl (3-{[4-oxo-1-(3,4,5-trifluorophenyl)-1,4-dihydropyridazin-3-yl]methyl}phenyl)carbamate], the IC50 is < 100 nM.

For the compound `Cn1cc(-n2ccc(=O)c(Cc3cccc(-c4ncc(N5CCC(O)C5)cn4)c3)n2)cn1` (racemic) [Example 440, rac-3-{3-[5-(3-Hydroxypyrrolidin-1-yl)pyrimidin-2-yl]benzyl}-1-(1-methy 1H-pyrazol-4-yl)pyridazin-4(1H)-one], the IC50 was < 100 nM.

With `CCOc1cnc(-c2cccc(Cc3nn(-c4cc(Cl)cc(C#N)c4)ccc3=O)c2)nc1` [Example 140, 3-chloro-5-{3-[3-(5-ethoxypyrimidin-2-yl)benzyl]-4-oxopyridazin-1(4H)-yl}benzonitrile], the IC50 is < 100 nM.

As for `CCCn1cnc(-c2cccc(C(C)c3nn(-c4cnn(C)c4)ccc3=O)c2)n1` (single isomer, unassigned) [Example 685, 1-(1-methyl-1H-pyrazol-4-yl)-3-{(1R or S)-1-[3-(1-propyl-1H-1,2,4-triazol-3-yl)phenyl]ethyl} pyridazin-4(1H)-one], the IC50 is < 100 nM.

On to `CC(C)COC(=O)Nc1cccc(Cc2nn(-c3ccc(F)c(F)c3)ccc2=O)c1` [Example 505, 2-methylpropyl (3-{[1-(3,4-difluorophenyl)-4-oxo-1,4-dihydropyridazin-3-yl]methyl}phenyl)carbamate], for which the IC50 is < 100 nM.

Take `Cc1nc(COc2cnc(-c3cccc(Cc4nn(-c5cnn(C)c5)ccc4=O)c3)nc2)no1` [Example 281, 3-(3-{5-[(5-methyl-1,2,4-oxadiazol-3-yl)methoxy]pyrimidin-2-yl}benzyl)-1-(1-methyl-1H-pyrazol-4-yl)pridazin-4(1H)-one]: the IC50 is < 100 nM.

Regarding `CCCNc1cnc(-c2cccc(Cc3nn(-c4cnn(C)c4)ccc3=O)c2)nc1` [Example 451, 1-(1-Methyl-1H-pyrazol-4-yl)-3-{3-[5-(propylamino)pyrimidin-2-yl]benzyl}pyridazin-4(1H)-one], the IC50 is < 100 nM.

On to `CCOC(=O)Nc1cccc(Cc2nn(-c3ccc(OC)nc3)ccc2=O)c1` [Example 31, ethyl (3-{[1-(6-methoxypyridin-3-yl)-4-oxo-1,4-dihydropyridazin-3-yl]methyl}phenyl)carbamate], for which the IC50 was < 100 nM.

`COC(=O)Nc1cccc(Cc2nn(-c3cnn(C)c3)ccc2=O)c1` [Example 497, Methyl(3-{[1-(1-methyl-1H-pyrazol-4-yl)-4-oxo-1,4-dihydropyridazin-3-yl]methyl}phenyl)carbamate]: the IC50 is < 100 nM.

With `COCC1CCCN(c2cnc(-c3cccc(Cc4nn(-c5cnn(C)c5)ccc4=O)c3)nc2)C1` (racemic) [Example 449, rac-3-(3-{5-[3-(methoxymethyl)piperidin-1-yl]pyrimidin-2-yl}benzyl)-1-(1-methyl-1H-pyrazol-4-yl)pyridazin-4(1H)-one], the IC50 was < 100 nM.

With `Cn1cc(-n2ccc(=O)c(Cc3cccc(N4CCOC4=O)c3)n2)cn1` [Example 637, 1-(1-Methyl-1H-pyrazol-4-yl)-3-[3-(2-oxo-1,3-oxazolidin-3-yl)benzyl]pyridazin-4(1H)-one], the IC50 is 1000 to 3000 nM.

On to `N#Cc1cccc(-n2ccc(=O)c(Cc3cccc(NC(=O)OCC4CCOC4)c3)n2)c1` (racemic) [Example 583, rac-tetrahydrofuran-3-ylmethyl (3-{[1-(3-cyanophenyl)-4-oxo-1,4-dihydropyridazin-3-yl]methyl}phenyl)carbamate], for which the IC50 is < 100 nM.

On to `Cn1cc(-n2ccc(=O)c(Cc3ccc4oc(=O)[nH]c4c3)n2)cn1` [Example 24, 5-{[1-(1-methyl-1H-pyrazol-4-yl)-4-oxo-1,4-dihydropyridazin-3-yl]methyl}-1,3-benzoxazol-2(3H)-one], for which the IC50 lay within 1000 to 3000 nM.

Take `CCOC(=O)Nc1cccc(Cc2nn(-c3cnn(CC4CCOCC4)c3)ccc2=O)c1` [Example 100, ethyl [3-({4-oxo-1-[1-(tetrahydro-2H-pyran-4-ylmethyl)-1H-pyrazol-4-yl]-1,4-dihydropyridazin-3-yl}methyl)phenyl]carbamate]: the IC50 was 100 to 1000 nM.

As for `N#Cc1cccc(-n2ccc(=O)c(Cc3cccc(NC(=O)OCC4COCCO4)c3)n2)c1` (racemic) [Example 601, rac-1,4-dioxan-2-ylmethyl (3-{[1-(3-cyanophenyl)-4-oxo-1,4-dihydropyridazin-3-yl]methyl}phenyl)carbamate], the IC50 is < 100 nM.

Consider `Cn1cc(-n2ccc(=O)c(Cc3cccc(NC(=O)OCC4CC(C)(C)OC(C)(C)C4)c3)n2)cn1` [Example 609, (2,2,6,6-tetramethyltetra-hydro-2H-pyran-4-yl)methyl (3-{[1-(1-methyl-1H-pyrazol-4-yl)-4-oxo-1,4-dihydropyridazin-3-yl]methyl}phenyl)carbamate], for which the IC50 was < 100 nM.

As to `Cn1cc(-n2ccc(=O)c(Cc3cccc(-c4ncc(-c5ccco5)cn4)c3)n2)cn1` [Example 404, 3-{3-[5-(furan-2-yl)pyrimidin-2-yl]benzyl}-1-(1-methyl-1H-pyrazol-4-yl)pyridazin-4(1H)-one], the IC50 is < 100 nM.

Consider `CCOC(=O)Nc1cccc(C(F)c2nn(-c3ccccc3)ccc2=O)c1` (racemic) [Example 640, rac-Ethyl-{3-[fluoro(4-oxo-1-phenyl-1,4-dihydropyridazin-3-yl)methyl]phenyl}carbamate], for which the IC50 fell in the range of 100 to 1000 nM.

Take `CCn1cc(-n2ccc(=O)c(C(C)c3cccc(-c4ncc(OC5COC5)cn4)c3)n2)cn1` (single isomer, unassigned) [Example 214, 1-(1-ethyl-1H-pyrazol-4-yl)-3-((1R or S)-1-{3-[5-(oxetan-3-yloxy)pyrimidin-2-yl]phenyl}ethyl)pyridazin-4(1H)-one]: the IC50 was < 100 nM.

With `CC(C)(O)COc1cnc(-c2cccc(Cc3nn(-c4cc(F)cc(F)c4)ccc3=O)c2)nc1` [Example 363, 1-(3,5-difluorophenyl)-3-{3-[5-(2-hydroxy-2-methylpropoxy)pyrimidin-2-yl]benzyl}pyridazin-4(1H)-one], the IC50 is < 100 nM.

In the case of `Cn1cc(-n2ccc(=O)c(Cc3cccc(-c4ncc(OCC5(CF)COC5)cn4)c3)n2)cn1` [Example 387, 3-[3-(5-{[3-(Fluoromethyl)oxetan-3-yl]methoxy}pyrimidin-2-yl)benzyl]-1-(1-methyl-1H-pyrazol-4-yl)pyridazin-4(1H)-one], the IC50 was < 100 nM.

With `Cn1cc(-n2ccc(=O)c(Cc3cccc(NC(=O)OCCN4CCOCC4=O)c3)n2)cn1` [Example 535, 2-(3-oxomorpholin-4-yl)ethyl (3-{[1-(1-methyl-1H-pyrazol-4-yl)-4-oxo-1,4-dihydropyridazin-3-yl]methyl}phenyl)carbamate], the IC50 is < 100 nM.

Consider `Cn1cc(-n2ccc(=O)c(Cc3cccc(-c4ncc(NC(=O)CC5CCOCC5)cn4)c3)n2)cn1` [Example 459, N-[2-(3-{[1-(1-methyl-1H-pyrazol-4-yl)-4-oxo-1,4-dihydro-pyridazin-3-yl]methyl}phenyl)pyrimidin-5-yl]-2-(tetrahydro 2H-pyran-4-yl)acetamide], for which the IC50 was < 100 nM.

`CCn1cc(-n2ccc(=O)c(Cc3cccc(-c4ncc(OCc5noc(C)n5)cn4)c3)n2)cn1` [Example 314, 1-(1-ethyl-1H-pyrazol-4-yl)-3-(3-{5-[(5-methyl-1,2,4-oxadiazol-3-yl)methoxy]pyrimidin-2-yl}benzyl)pyridazin-4(1H)-one]: the IC50 is < 100 nM.

With `CC(c1cccc(-c2ncc(OC3CCNCC3)cn2)c1)c1nn(-c2cnn(C)c2)ccc1=O` (racemic) [Example 334, rac-1-(1-Methyl-1H-pyrazol-4-yl)-3-(1-{3-[5-(piperidin-4-yloxy)pyrimidin-2-yl]phenyl}ethyl)pyridazin-4(1H)-one], the half-maximal inhibitory concentration (IC50) is < 100 nM.

`CCn1cc(-n2ccc(=O)c(C(C)c3cccc(-c4ncc(OC(C)C)cn4)c3)n2)cn1` (single isomer, unassigned) [Example 293, 1-(1-ethyl-1H-pyrazol-4-yl)-3-[(1R or S)-1-{3-[5-(1-methylethoxy)pyrimidin-2-yl]phenyl}ethyl]pyridazin-4(1H)-one]: the IC50 is < 100 nM.

For `CC(c1cccc(-c2ncc(OCC(C)(C)O)cn2)c1)c1nn(-c2cnn(C)c2)ccc1=O` (single isomer, unassigned) [Example 380, 3-((1S or R)-1-{3-[5-(2-hydroxy-2-methylpropoxy)pyrimidin-2-yl]phenyl}ethyl)-1-(1-methyl-1H-pyrazol-4-yl)pyridazin-4(1H)-one], the IC50 is < 100 nM.

In the case of `Cn1cc(-n2ccc(=O)c(Cc3cccc(NC(=O)OCC(C)(C)C)c3)n2)cn1` [Example 501, 2,2-dimethylpropyl (3-{[1-(1-methyl-1H-pyrazol-4-yl)-4-oxo-1,4-dihydropyridazin-3-yl]methyl}phenyl)carbamate], the IC50 was < 100 nM.

For `CCOC(=O)Nc1cccc(Cc2nn(-c3cnn(CC)c3)ccc2=O)c1` [Example 109, ethyl (3-{[1-(1-ethyl-1H-pyrazol-4-yl)-4-oxo-1,4-dihydropyridazin-3-yl]methyl}phenyl)carbamate], the IC50 was < 100 nM.

For the compound `CCn1cc(-n2ccc(=O)c(C(C)c3cccc(-c4ncc(OCC5CCNCC5)cn4)c3)n2)cn1` (single isomer, unassigned) [Example 339, 1-(1-ethyl-1H-pyrazol-4-yl)-3-((1R or S)-1-{3-[5-(piperidin-4-ylmethoxy)pyrimidin-2-yl]phenyl}ethyl)pyridazin-4(1H)-one], the IC50 is < 100 nM.

As to `O=c1ccn(-c2ccc(F)c(F)c2)nc1Cc1cccc(-c2ncc(OCC3CCOC3)cn2)c1` (single isomer, unassigned) [Example 352, 1-(3,4-difluorophenyl)-3-(3-{5-[(3S or R)-tetrahydrofuran-3-ylmethoxy]pyrimidin-2-yl}benzyl)pyridazin-4(1H)-one], the IC50 is < 100 nM.

In the case of `CCCn1cnc(-c2cccc(Cc3nn(-c4cccc(C#N)c4)ccc3=O)c2)n1` [Example 85, 3-{4-oxo-3-[3-(1-propyl-1H-1,2,4-triazol-3-yl)benzyl]pyridazin-1(4H)-yl}benzonitrile], the IC50 was < 100 nM.
